From patent US7935335B2, “Strains belonging to the genus Paenibacillus and method of controlling plant disease by using these strains or culture thereof” (Kaken Pharmaceutical Co., Ltd., priority 2004, dated 2011) come the findings set out here.

Assay [1] has as its system strawberry anthracnose fungus (Glomerella cigulata). Put plainly: Test Example 4: control effect of purified spores on strawberry anthracnose. Format: in vivo. Conditions: 20 ppm. The method, then: Strawberry seedlings (cultivar: Akihime) cultivated in plastic pots and having about 10 developed leaflets were subjected to foliage application treatment with a spore preparation sample of strain BS-0105 obtained by formulating the bacterium of the present invention produced by the method described in Production Example 5, by the method described in Formulation Example 2, so that the proportion of cells might be 2×10^7 CFU/mL. After the pots were allowed to stand in a dark moist chamber at 25° C. for 24 hours and then in a glass house at 25° C. for 3 days (or 1 day in the case of Amister 20 flowable), the plants were inoculated with a suspension of strawberry anthracnose fungus conidia in distilled water (Glomerella cigulata, 2×10^6 spores/ml) by spraying. The pots were allowed to stand in a dark moist chamber at 25° C. for 24 hours and then in a glass house at 25° C. for 14 days to cause the disease. The disease severity was calculated by the following equation and the protective value was calculated from the disease severity values by the following equation to make a comparison with respect to control effect. […]

The test system of a further assay is parsley cultured cells. Put plainly: Activity of inducing disease resistance: elicitor responsiveness of parsley cultured cells, phytoalexin detection by fluorescence. The assay is classed as cell-based. To be noted: Evaluation Example 1; elicitor treatment Yes; 2.5 μM.
Assay [2] has as its system cucumber bacterial blight bacterium (Pseudomonas syringae pv. lachrymans). Put plainly: Test Example 3: control effect of purified spores on cucumber bacterial blight. Format: in vivo. To be noted: cucumber second true leaf; 20 ppm.
In assay [3] the test system is cucumber anthracnose fungus (Colletotrichum orbiculare). Put plainly: Test Example 2: control effect of purified spores on cucumber anthracnose. Format: in vivo. Conditions: 20 ppm. The text has this: Each of plastic pots was filled with horticultural compost and sown with cucumber (cultivar: 15 Suyo), followed by growing in a greenhouse for 20 days. The cucumber young seedling having a developed second true leaf was subjected to foliage application treatment with a spore preparation sample of strain BS-0105 obtained by formulating the bacterium of the present invention produced by the method described in each of Production Examples 4, 5, 6 and 7, by the method described in Formulation Example 1, so that the proportion of cells might be 2×10^7 CFU/mL. After the pots were allowed to stand in a dark moist chamber at 25° C. for 24 hours and then in a glass house at 25° C. for 4 days, the plants were inoculated with a suspension of cucumber anthracnose fungus conidia in distilled water (Colletotrichum orbiculare, 1×10^6 spores/ml) by spraying. The pots were allowed to stand in a dark moist chamber at 25° C. for 24 hours and then in a glass house at 25° C. for 7 days to cause the disease. Lesions in each leaf were counted and the protective value was calculated from the number of the lesions by the following equation to make a comparison with respect to control effect. Protective value={1−(number of lesions on treated plot/number of lesions on untreated plot)}×100

Consider `CSC(=O)c1cccc2nnsc12` [Acibenzolar-S-methyl, S-methyl 1,2,3-benzothiazole-7-carboxylate], for which, in assay [1], the Disease severity amounted to 10.9 b and the Protective value is reported as 85.1. Moreover, the Relative fluorescence in the assay with parsley cultured cells was determined as 754.3. Further, in assay [2], the “Number of lesions per leaf” value came to 0 b and the Protective value is reported as 100. Besides, in assay [3], the “First true leaf Number of lesions per leaf” value stood at 0, the “First true leaf Protective value” was 100, the “Second true leaf Number of lesions per leaf” value amounted to 5.5 and the “Second true leaf Protective value” came to 99.
